Reference: patent publication US5569471A, “Medicine for the treatment of tumor” (priority 1993, dated 1996)
Entries after “also recorded” stand apart in the source; their conditions may differ.

Legend:
[1] = system: human myeloblastic leukemia cells (K-562); test: Test for confirming the effect of enhancing antitumor activity by a simultaneous dosage, K-562 cells; format: cell-based; settings: 4-piperidino-piperidine 2.5 μg/ml simultaneously; drug doses of Table 3; FIG. 5
Protocol: (§1) The numbers of the lethal cells were counted in cases where 4-piperidino-piperidine (2.5 μg/ml) and each of the ten kinds of the antitumor drugs listed in Table 3 were simultaneously dosed (in small amounts and large amounts for each drug), and where the ten kinds of the antitumor drugs were independently and singly dosed (in small amounts and large amounts for each drug).
(§2) The procedure of Example 9 was repeated by using human myeloblastic leukemia cells (K-562) in place of the T-ALL cells.

[2] = system: T-ALL cells; test: Test for confirming the effect of enhancing antitumor activity by a simultaneous dosage, T-ALL cells; format: cell-based, human; settings: 4-piperidino-piperidine 2.5 μg/ml simultaneously, FIG. 4
Protocol: as §1, §2

[3] = system: T-ALL cells; test: Test for confirming the effect of enhancing antitumor activity by successive dosage; format: cell-based, human; settings: FIG. 3
Protocol: The tumor cell killing effect was investigated by successively administering 4-piperidino-piperidine and an antitumor drug to T-ALL cells.
First, T-ALL cells were cultured in a plurality of culture media containing 4-piperidino-piperidine at different concentrations (2.5, 12.5, 25 and 50 μg/ml) for 6 days. […] The results are shown in FIG. 3, which employes a relative expression where the number of lethal cells in the standard cell groups was taken as 100% (shown by a horizontal perforated line). The numbers 1, 2, 3 and 4 given for each drug indicate that the concentration of 4-piperidino-piperidine used for the culture is 2.5, 12.5, 25 and 50 μg/ml, respectively.

[4] = system: T-cells derived from human acute leukemia (RPMI-8402, T-ALL cells); test: Test for confirming the inhibitory effect on tumor cell propagation (6-day culture, counting of lethal and propagated cells); format: cell-based; settings: 2.5, 12.5, 25, 50, 80 and 100 μg/ml, FIG. 1
Protocol: To samples of T-cells derived from human acute leukemia (RPMI-8402, T-ALL cells, see Minowada, J. and Moore, G. E., In Comparative Leukemia Research, Eds. Ito, Y. and Dutcher, R. M., Univ. Tokyo Press, Tokyo, pp. 251-261, 1975), 4-piperidino-piperidine (4-PP) in various concentrations was added (0, 2.5, 12.5, 25, 50, 80 and 100 μg/ml). After a 6-day culture, lethal cells and propagated cells were counted.

[5] = Toxicity test; settings: in vivo; species and route not given
Protocol: The LD50 value of 4-piperidino-piperidine is about 200 to 300 mg/kg. Therefore, ordinary dose will not cause any risk.

[6] = system: cisplatin-resistant human myeloid leukemia cells (K-562); test: Test for confirming the resistance dissolving effect, cisplatin-resistant cells; format: cell-based; settings: FIG. 2; for cell killing effect, single dose: 4-piperidino-piperidine 2.5 μg/ml alone, cisplatin 1 alone, vs control
Excerpt: As drug-fast cells, two kinds of human myeloid leukemia cells (K-562) which had acquired drug resistance against adriamycin (ADR) and cisplatin were used (see Kaoru MIURA, et al., "NK and LAK cell sensitivity and HLA expression" 51st Conference of Japan Cancer Association, page 252, 1992; and Nobutaka IMAIZUMI, Yoichiro KUSUKI, Chie KAWACHI, et al., "Establishing adriamycin-resistant strains and review on the mechanism of resistance", Oncologoa, 21, 89-94, 1988). In the test, adriamycin (ADR), cisplatin, and 4-piperidino-piperidine were dosed singly or in combination against the two kinds of the drug-fast cells, and the number of the lethal cells were counted.

[7] = in the concentration of 0.05 μg/ml
[8] = 4-piperidino-piperidine precedently dosed, all concentration groups (2.5, 12.5, 25 and 50 μg/ml), ACR 0.05, MTX 0.01 μg/ml
[9] = 4-piperidino-piperidine precedently dosed at 12.5, 25 and 50 μg/ml, DNR 0.05, 5-FU 10 μg/ml
[10] = both drug concentrations (DNR 0.01/0.05, ACR 0.05/0.1, 5-FU 5/10 μg/ml)

CC[C@]1(O)C[C@@H]2CN(CCc3c([nH]c4ccccc34)[C@@](C(=O)OC)(c3cc4c(cc3OC)N(C)[C@H]3[C@@](O)(C(N)=O)[C@H](O)[C@]5(CC)C=CCN6CC[C@]43[C@@H]65)C2)C1 [VDS]
enhancement of antitumor activity by combined use with 4-piperidino-piperidine [1]: enhanced | enhancement of antitumor activity by combined use with 4-piperidino-piperidine [2, 7]: enhanced

CC[C@]1(O)C[C@H]2CN(CCc3c([nH]c4ccccc34)[C@@](C(=O)OC)(c3cc4c(cc3OC)N(C=O)[C@H]3[C@@](O)(C(=O)OC)[C@H](OC(C)=O)[C@]5(CC)C=CCN6CC[C@]43[C@@H]65)C2)C1 [VCR]
enhancement of antitumor activity by combined use with 4-piperidino-piperidine [1]: enhanced

CCc1c2c(nc3ccc(OC(=O)N4CCC(N5CCCCC5)CC4)cc13)-c1cc3c(c(=O)n1C2)COC(=O)[C@]3(O)CC [CPT-11, 7-Ethyl-10-piperidino-piperidinocarboxycamptothecin]
enhancement of antitumor drug effect (lethal cells relative to standard cells) ([3]; 4-piperidino-piperidine precedently dosed at 25 and 50 μg/ml, CPT-11 10 μg/ml): enhanced

COc1cccc2c1C(=O)c1c(O)c3c(c(O)c1C2=O)C[C@@](O)(C(=O)CO)C[C@@H]3O[C@H]1C[C@H](N)[C@H](O)[C@H](C)O1 [ADR]
enhancement of antitumor activity by combined use with 4-piperidino-piperidine [1]: enhanced | enhancement of antitumor activity by combined use with 4-piperidino-piperidine [2, 7]: enhanced

COc1cc([C@@H]2c3cc4c(cc3[C@@H](O[C@@H]3O[C@@H]5CO[C@@H](C)O[C@H]5[C@H](O)[C@H]3O)[C@H]3COC(=O)[C@H]23)OCO4)cc(OC)c1O [etoposide]
enhancement of antitumor activity by combined use with 4-piperidino-piperidine [1]: enhanced

O=C1c2c(O)ccc(O)c2C(=O)c2c(NCCNCCO)ccc(NCCNCCO)c21 [Mitoxantrone]
enhancement of antitumor activity by combined use with 4-piperidino-piperidine [1]: enhanced | enhancement of antitumor drug effect (lethal cells relative to standard cells) ([3]; 4-piperidino-piperidine precedently dosed at 2.5 and 50 μg/ml, mitoxantrone 0.05 μg/ml): enhanced effects

CN(Cc1cnc2nc(N)nc(N)c2n1)c1ccc(C(=O)N[C@@H](CCC(=O)O)C(=O)O)cc1 [MTX]
enhancement of antitumor activity by combined use with 4-piperidino-piperidine [1]: enhanced | enhancement of antitumor drug effect (lethal cells relative to standard cells) [3, 8]: enhanced effects

C1CCN(C2CCNCC2)CC1 [4-piperidino-piperidine]
number of propagated cells [4]: decreased in a dose-dependent manner | number of lethal cells (tumor cell killing effect) ([4]; vs control): does not have tumor cell killing effect per se; also recorded: not significantly different from the count of the control group | LD50 [5]: 200 to 300 mg/kg | cell killing effect, single dose [6]: almost the same cell killing effect as that of the control group | cell killing effect, simultaneous dose (resistance dissolving) ([6]; cisplatin and 4-piperidino-piperidine simultaneously dosed, compared with each dosed singly): significantly enhanced

O=c1[nH]cc(F)c(=O)[nH]1 [5-FU, 5-Fluorouracil]
enhancement of antitumor drug effect (lethal cells relative to standard cells) [3, 9]: enhanced effects | enhancement of antitumor activity by combined use with 4-piperidino-piperidine [2, 10]: enhanced

N.N.[Cl][Pt][Cl] [cisplatin]
enhancement of antitumor activity by combined use with 4-piperidino-piperidine [1]: enhanced | cell killing effect, single dose [6]: almost the same cell killing effect as that of the control group

CCC1(O)CC(OC2CC(N(C)C)C(OC3CC(O)C(OC4CCC(=O)C(C)O4)C(C)O3)C(C)O2)c2c(cc3c(c2O)C(=O)c2c(O)cccc2C3=O)C1C(=O)OC (stereo not shown) [ACR]
enhancement of antitumor drug effect (lethal cells relative to standard cells) [3, 8]: enhanced effects | enhancement of antitumor activity by combined use with 4-piperidino-piperidine [2, 10]: enhanced

COc1cccc2c1C(=O)c1c(O)c3c(c(O)c1C2=O)C[C@@](O)(C(C)=O)C[C@@H]3O[C@H]1C[C@H](N)[C@H](O)[C@H](C)O1 [DNR]
enhancement of antitumor activity by combined use with 4-piperidino-piperidine [1]: enhanced | enhancement of antitumor drug effect (lethal cells relative to standard cells) [3, 9]: enhanced effects | enhancement of antitumor activity by combined use with 4-piperidino-piperidine [2, 10]: enhanced
